Type in all cases: functional
The subject of assay [1] is Mycobacterium avium. Kind of assay: Antibacterial activity against Mycobacterium avium Flamingo after 18 hrs by agar plate dilution method.
The subject of assay [2] is Mycobacterium tuberculosis. Put plainly: Antibacterial activity against Mycobacterium tuberculosis H37Rv after 18 hrs by agar plate dilution method.
Assay [3] deals with Mycobacterium intracellulare. Kind of assay: Antibacterial activity against Mycobacterium intracellular ATCC 15984 after 18 hrs by agar plate dilution method. The conditions noted are these: ATCC 15984, 18 h.
The test system of assay [4] is Mycolicibacterium smegmatis. Kind of assay: Antibacterial activity against Mycobacterium smegmatis Takeo after 18 hrs by agar plate dilution method.
Assay [5] relates to Mycolicibacterium fortuitum. Put plainly: Antibacterial activity against Mycobacterium fortuitum NIHJ1615 after 18 hrs by agar plate dilution method.
Assay [6] deals with Mycolicibacterium aurum. Kind of assay: Antibacterial activity against Mycobacterium aurum after 18 hrs by agar plate dilution method.
In assay [7] the test system is Staphylococcus aureus. Kind of assay: Antibacterial activity against Staphylococcus aureus FDA209P after 18 hrs by agar plate dilution method.
Assay [8] deals with Enterococcus faecalis. Kind of assay: Antibacterial activity against vancomycin-resistant Enterococcus faecalis NCTC-12203 after 18 hrs by agar plate dilution method.
Assay [9] relates to Staphylococcus aureus. Put plainly: Antibacterial activity against methicillin-resistant Staphylococcus aureus Mu50 after 18 hrs by agar plate dilution method. The conditions noted are these: Mu50, 18 h.
Assay [10] relates to Enterococcus faecalis. Kind of assay: Antibacterial activity against vancomycin-resistant Enterococcus faecalis NCTC-12201 after 18 hrs by agar plate dilution method.
Assay [11] has as its system Staphylococcus aureus. Kind of assay: Antibacterial activity against Staphylococcus aureus Smith after 18 hrs by agar plate dilution method.
Assay [12] concerns Staphylococcus aureus. Kind of assay: Antibacterial activity against vancomycin-resistant Staphylococcus aureus 70 after 18 hrs by agar plate dilution method.
Assay [13] relates to Staphylococcus aureus. Put plainly: Antibacterial activity against Staphylococcus aureus macrolide-resistance after 18 hrs by agar plate dilution method.
The test system of assay [14] is Escherichia coli. Kind of assay: Antibacterial activity against Escherichia coli NIHJ JC2 by agar plate dilution method.
The subject of assay [15] is Pseudomonas aeruginosa. Kind of assay: Antibacterial activity against Pseudomonas aeruginosa 46001 by agar plate dilution method.
Assay [16] concerns Staphylococcus aureus. Put plainly: Antibacterial activity against methicillin-resistant Staphylococcus aureus 92-1191 after 18 hrs by agar plate dilution method.
Assay [17] has as its system Staphylococcus aureus. Kind of assay: Antibacterial activity against methicillin-resistant Staphylococcus aureus after 18 hrs by agar plate dilution method.
Assay [18] deals with Klebsiella pneumoniae. Kind of assay: Antibacterial activity against Klebsiella pneumoniae NCTN9632 by agar plate dilution method.
Assay [19] relates to Staphylococcus aureus. Kind of assay: Antibacterial activity against Linezolid and methicillin-resistant Staphylococcus aureus 06 after 18 hrs by agar plate dilution method.
In assay [20] the test system is Proteus mirabilis. Kind of assay: Antibacterial activity against Proteus mirabilis IFO3849 by agar plate dilution method.

Values after ≈ are worked out from the molar mass of the structure shown. A value given as a limit tells only on which side of the number the result lay.

Consider six compounds from ChEMBL document CHEMBL1148727, “Discovery of 1,4-dihydroxy-2-naphthoate [corrected] prenyltransferase inhibitors: new drug leads for multidrug-resistant gram-positive pathogens” (2007).

As usually defined, the MIC is the least concentration at which growth counts as inhibited. A higher MIC goes with a need for much substance.

For the compound `NNC(=O)c1ccncc1` [ISONIAZID], the MIC in assay [1] was > 25 µg/mL; in assay [2], 0.1 µg/mL (≈ 0.729 µM); in assay [3], 12.5 µg/mL (≈ 91.1 µM); in assay [4] it was 12.5 µg/mL (≈ 91.1 µM); in [5] it was 6.3 µg/mL (≈ 45.9 µM); in assay [6], 6.3 µg/mL (≈ 45.9 µM).

`C=CCN(C)CCCCCCCCOc1ccc(C(=O)c2ccc(Cl)cc2)c(O)c1`: the MIC in assay [7] is > 12.5 µg/mL; in assay [1] it was 6.3 µg/mL (≈ 14.7 µM); in assay [2], 1.5 µg/mL (≈ 3.49 µM); in [8], > 12.5 µg/mL; in assay [3], 6.3 µg/mL (≈ 14.7 µM); in assay [9] it was > 12.5 µg/mL. Moreover, the MIC is 12.5 µg/mL (≈ 29.1 µM) in assay [4]; 12.5 µg/mL (≈ 29.1 µM) in [5]; 6.3 µg/mL (≈ 14.7 µM) in assay [6]; > 12.5 µg/mL in assay [10]; > 12.5 µg/mL in assay [11].

For the compound `CN(CCCOC/C=C/COc1ccc(C(=O)c2ccc(Cl)cc2)c(O)c1)CCc1ccc(F)cc1`, the MIC was 4 µg/mL (≈ 7.81 µM) in assay [12]; 4 µg/mL (≈ 7.81 µM) in assay [13]; > 128 µg/mL in assay [14]; > 128 µg/mL in [15]; 4 µg/mL (≈ 7.81 µM) in assay [7]; 12.5 µg/mL (≈ 24.4 µM) in [2]. Also, the minimal inhibitory concentration (MIC) was 4 µg/mL (≈ 7.81 µM) in [16]; 2 µg/mL (≈ 3.91 µM) in assay [8]; 4 µg/mL (≈ 7.81 µM) in assay [17]; 8 µg/mL (≈ 15.6 µM) in assay [9]; > 128 µg/mL in assay [18]; 8 µg/mL (≈ 15.6 µM) in assay [19]. Further, the MIC in assay [20] is > 128 µg/mL; in assay [10] it was 8 µg/mL (≈ 15.6 µM); in assay [11], 8 µg/mL (≈ 15.6 µM).

On to `CN[C@H](CC(C)C)C(=O)N[C@H]1C(=O)N[C@@H](CC(N)=O)C(=O)N[C@H]2C(=O)N[C@H]3C(=O)N[C@H](C(=O)N[C@H](C(=O)O)c4cc(O)cc(O)c4-c4cc3ccc4O)[C@H](O)c3ccc(c(Cl)c3)Oc3cc2cc(c3O[C@@H]2O[C@H](CO)[C@@H](O)[C@H](O)[C@H]2O[C@H]2C[C@](C)(N)[C@H](O)[C@H](C)O2)Oc2ccc(cc2Cl)[C@H]1O` [VANCOMYCIN], for which the MIC in assay [14], in assay [15], in assay [8], in [18], in [20] and in assay [10] was > 128 µg/mL each time.

With `CO[C@H]1/C=C/O[C@@]2(C)Oc3c(C)c(O)c4c(O)c(c(/C=N/N5CCN(C)CC5)c(O)c4c3C2=O)NC(=O)/C(C)=C\C=C\[C@H](C)[C@H](O)[C@@H](C)[C@@H](O)[C@@H](C)[C@H](OC(C)=O)[C@@H]1C` [RIFAMPIN], the MIC was 3.1 µg/mL (≈ 3.77 µM) in assay [1]; 0.2 µg/mL (≈ 0.243 µM) in [2]; 3.1 µg/mL (≈ 3.77 µM) in assay [3]; > 25 µg/mL in assay [4]; > 25 µg/mL in assay [5]; 0.78 µg/mL (≈ 0.948 µM) in [6].

Consider `CC(=O)NC[C@H]1CN(c2ccc(N3CCOCC3)c(F)c2)C(=O)O1` [LINEZOLID], for which the MIC in assay [14] was 128 µg/mL (≈ 379 µM); in assay [15], > 128 µg/mL; in [18], > 128 µg/mL; in assay [19], 32 µg/mL (≈ 94.9 µM); in [20] it was 128 µg/mL (≈ 379 µM).
